One experiment concerns HT-29 cells. The experiment can be described thus: Microarray gene expression analysis, HT-29. The format is cell-based, human. As for the experimental part: (§1) A total of 0.5×10^6 tumor cells (HCT-116, HT-29, KM12C) were plated in a 6-well plate and allowed to adhere overnight before 24-hour treatment as indicated. 1×10^6 immune cells (NK92, TALL-104) were plated and treated with elraglusib as indicated for 24 hours. RNA was isolated from cell pellets in batches of 6 using an RNeasy Plus Mini Kit (Cat #74134, Qiagen, Hilden, Germany). Acceptable RNA concentration and quality were verified with Nanodrop and Bioanalyzer measurements. GeneChip™ Human Transcriptome Array 2.0 assays were conducted according to manufacturer instructions in two batches using randomized samples to limit batch effects (Cat #902162, Applied Biosystems, Waltham, MA, USA). Applied Biosystems Transcriptomic Analysis Console (TAC) software (RRID: SCR_016519) was used to calculate fold changes in gene expression relative to the untreated control cells. Values were considered statistically significant for p values <0.05.

In another experiment the test system is SW480 MSS CRC cells. Nature of the experiment: Multicolor co-culture of SW480 CRC cells and TALL-104 T cells, EthD-1 dead cells. The format is cell-based, human. Particulars: for percentage of dead cells out of total cells (average, normalized): 24 hours, 1:1 E:T. The protocol:
10,000 HCT-116, SW480, or HT-29 cells were plated per well in a clear-bottom, black-walled 48-well tissue culture plate and were allowed to adhere overnight. […] CRC cells were labeled using CellTracker™ Green CMFDA (5-chloromethylfluorescein diacetate), immune cells (NK-92, TALL-104) were labeled using CellTracker™ Blue CMAC Dye (7-amino-4-chloromethylcoumarin), and ethidium homodimer-1 (EthD-1) was used as a marker of cell death (Invitrogen, Waltham, MA). 10× images were captured using a Nikon Ti-U Inverted Fluorescence Microscope and NIS-Elements F Package imaging software 3.22.00 Build 710 (Nikon Instruments Inc, USA). The number of red/green color cells in random fields was determined using thresholding and particle analysis in the Fiji modification (RRID: SCR_002285) of ImageJ and expressed as a dead/live cell ratio. Normalization was carried out by subtracting the percentage of cell death due to drug or vehicle control (DMSO) only from the percentage of dead cells observed in the co-culture of tumor and immune cells treated with the drug. At least 100 cells were evaluated per sample, with 3 independent replicates. Statistical analysis was done using GraphPad Prism 9 (RRID: SCR_002798).

Experiment [1] concerns TALL-104 cells. Nature of the experiment: Cytokine profiling of cell culture supernatant (Luminex 200), TALL-104. The format is cell-based, human. The protocol:
Cells were plated at 3.5×10^4 cells in a 48-well plate (Thermo Fisher Scientific, Waltham, MA, USA) in complete medium and incubated at 37° C. with 5% CO2. At 24 hours after plating, almost all the tumor cells were adherent to the bottom of the flask and the complete medium was replaced with the drug-containing medium. […] On the day of analysis, samples were thawed and centrifuged to remove cellular debris.
Human cell line culture supernatants were analyzed using an R&D systems Human Premixed Multi-Analyte Kit (R&D Systems, Inc., Minneapolis, MN, USA) and a Luminex 200 (RRID: SCR_018025) Instrument (LX200-XPON-RUO, Luminex Corporation, Austin, TX, USA) according to the manufacturer's instructions. Sample levels of TNF-α, 4-1BB/TNFRSF9/CD137, IL-8/CXCL8, Ferritin, IFN-β, IL-10, CCL2/JE/MCP-1, VEGF, CXCL13/BLC/BCA-1, IFN-γ, CCL20/MIP-3 α, CCL3/MIP-1 α, CCL22/MDC, CCL4/MIP-1 β, Fas Ligand/TNFSF6, IL-17/IL-17A, IL-2, BAFF/BLyS/TNFSF13B, GM-CSF, CXCL5/ENA-78, TRANCE/TNFSF11/RANK L, CXCL9/MIG, G-CSF, IFN-γ R1/CD119, VEGFR3/Flt-4, C-Reactive Protein/CRP, CXCL11/I-TAC, IL-21, CXCL14/BRAK, IL-6, Fas/TNFRSF6/CD95, TRAIL R3/TNFRSF10C, IL-4, CCL5/RANTES, PD-L1/B7-H1, CCL7/MCP-3/MARC, Chitinase 3-like 1, CXCL10/IP-10/CRG-2, IL-1 β/IL-1F2, IL-7, Prolactin, CCL8/MCP-2, TRAIL R2/TNFRSF10B, M-CSF, IL-15, Granzyme B, IFN-α, TREM-1, IL-12/IL-23 p40, TRAIL/TNFSF10, CCL11/Eotaxin, and IL-18/IL-1F4. Quantitative analysis with 6 standards and a minimum of 50 counts per bead region was used with the Luminex to generate analyte values reported as picograms/milliliter (pg/mL). Sample concentrations less than the lower limit of detection for each particular analyte were recoded as the lower limit value divided by ten. Sample concentrations above the upper limit of detection for a particular analyte were recoded as the upper limit of detection.

Experiment [2] has as its system TALL-104 cells. Nature of the experiment: Microarray gene expression analysis, TALL-104. In kind it is cell-based, human. As for the experimental part: as §1
Experiment [3] concerns CT-26 MSS colon carcinoma. The experiment can be described thus: Syngeneic murine colon carcinoma BALB/c model using MSS cell line CT-26, survival. In kind it is in vivo, BALB/c mice. Conditions: IP twice a week: elraglusib 70 mg/kg, anti-PD-1 10 mg/kg, anti-PD-L1 10 mg/kg. As for the experimental part:
The experimental in vivo protocol (Protocol #19-01-003) was approved by the Institutional Animal Care and Use Committee of Brown University (Providence, RI, USA). Six to 7 weeks-old female BALB/c mice (RRID: IMSR_JAX:000651) were purchased from Taconic. 50,000 cells were suspended in 50 μL ice-cold PBS and 50 μL Matrigel (Catalog # 354234, Corning, New York, USA), and 100 uL was injected subcutaneously into the rear flanks. Once tumor volume reached at least 100 mm^3, mice were randomly assigned to one of seven groups (3 mice/group): Control (isotype), elraglusib, elraglusib+Isotype, anti-PD-1, anti-PD-L1, elraglusib+anti-PD-1, and elraglusib+anti-PD-L1. All treatments were delivered by IP injection on the following dosing schedule: Isotype (70 mg/kg, twice a week), elraglusib (70 mg/kg, twice a week), anti-PD-1 (10 mg/kg, twice a week), anti-PD-L1 (10 mg/kg, twice a week). The treatment continued until mice developed signs of discomfort from excessive tumor growth. Mice were weighed once a week to monitor signs of drug toxicity. The length (L) and width (W) of the masses were measured three times per week with a digital caliper, and the tumor volume was calculated by applying the formula: 0.5LW2. Collection of whole blood and serum was performed by cardiac puncture and sent to Antech GLP for blood cell count and chemistry tests, or in-house cytokine profiling. […]

[4] abbreviates: IC-50 concentration (1 μM), 24 hours, FC cutoff >1.5, <−1.5, p<0.05.

Each structure is given as a SMILES string.

In the case of `Cn1cc(C2=C(c3coc4ccc(F)cc34)C(=O)NC2=O)c2cc3c(cc21)OCO3` [elraglusib, 3-(5-fluorobenzofuran-3-yl)-4-(5-methyl-5H-[1,3]dioxolo[4,5-f]indol-7-yl)-1H-pyrrole-2,5-dione], in the experiment with HT-29 cells (24 hours vs DMSO), the “NCR3LG1 (B7-H6) gene expression fold change” value stood at 1.78 FC and the “downregulated genes in VEGFA-VEGFR2 signaling pathway” value stood at 37. Further, the “differentially expressed genes post-treatment” value in the experiment on HT-29 cells (setting [4]) is recorded as 2,307. Further, in the experiment with SW480 MSS CRC cells (co-culture with TALL-104, 5 μM), the “percentage of dead cells out of total cells (average, normalized)” value was found to be 60%. In the experiment on SW480 MSS CRC cells (co-culture with TALL-104, 10 μM), the “percentage of dead cells out of total cells (average, normalized)” value came to 65%. Moreover, in the experiment on SW480 MSS CRC cells (drug only, no immune cells), the “tumor cell death in SW480 monocultures” value is listed as “limited tumor cell death”. The “percentage of dead cells (average, normalized)” value in the experiment on SW480 MSS CRC cells (tumor cells pre-treated with 5 μM for 24 hours, then 24-hour co-culture with TALL-104) was found to be 65%. In addition, in the experiment on TALL-104 cells [1] (1 μM, 48 hours), the “IFN-γ concentration in supernatant” value is recorded as “increases”, the “TRAIL concentration in supernatant” value was “increases” and the “granzyme B concentration in supernatant” value is reported as “increases”. Further, the “IFN-γ in cell culture supernatant” value in the experiment on TALL-104 cells [1] (24 hours treatment vs DMSO) is recorded as “significant increase in IFN-γ”. Moreover, in the experiment on TALL-104 cells [2] (24 hours vs DMSO), the “CCL3 gene expression fold change” value stood at 1.52 FC, the “KIF7 gene expression fold change” value was determined as 1.56 FC and the “PTPN3 gene expression fold change” value was −1.56 FC. Further, the “differentially expressed genes post-treatment” value in the experiment on TALL-104 cells [2] (setting [4]) is given as 64. Besides, the “survival (Kaplan-Meier) as compared to the control” value in experiment [3] is “statistically significant improved survival”.

These data come from patent US20260256741A1, “ANTICANCER MALEIMIDE DERIVATIVES FOR USE WITH IMMUNE CHECKPOINT BLOCKADE” (BROWN UNIVERSITY, priority 2022, published 2026).
